The test has as its target T1, canine TRPM8 (Canis lupus familiaris, UniProt Q1A7N1).
T1 construct: expressed in transfected cells
The experiment in a line: In vitro canine TRPM8 functional assay (Ca2+-sensitive fluorescent dye, FLIPR or FDSS, icilin challenge). The class given is cell-based. As to conditions: HEK293 cells stably expressing canine TRPM8; for inhibition at 0.2 µM: 0.2 μM compound, icilin challenge; for IC50: icilin at approx. 80% maximal response, eight-point dose-response, single determinations unless otherwise noted, read-out: IC50. How it is done: The functional activity of compounds of the formula (I) was determined by measuring changes in intracellular calcium concentration using a Ca^2+-sensitive fluorescent dye. The changes in fluorescent signal were monitored by a fluorescence plate reader, either a FLIPR™ (Molecular Devices) or FDSS (Hamamatsu).
At 24 hrs prior to assay, HEK293 cells stably expressing canine TRPM8 were seeded in culture medium in black wall, clear-base poly-D-lysine coated 384-well plates (BD Biosciences, NJ, USA) and grown overnight in 5% CO2 at 37° C. On assay day, growth media was removed and cells were loaded with Calcium 3 Dye (Molecular Devices) for 35 min at 37° C., under 5% CO2 and then for 25 min at room temperature and atmosphere. Subsequently, cells were tested for agonist-induced increases in intracellular Ca^2+ levels using FLIPR™ or FDSS. Cells were challenged with a compound of the Formula (I) (at varying concentrations) and intracellular Ca^2+ was measured for 5 min prior to the addition of icilin to all wells to achieve a final concentration that produces approximately an 80% maximal response. EC50 or IC50 values for compounds of the present invention were determined from eight-point dose-response studies. Curves were generated using the average of quadruplicate wells for each data point.

T1 sequence (Q1A7N1 1-1104): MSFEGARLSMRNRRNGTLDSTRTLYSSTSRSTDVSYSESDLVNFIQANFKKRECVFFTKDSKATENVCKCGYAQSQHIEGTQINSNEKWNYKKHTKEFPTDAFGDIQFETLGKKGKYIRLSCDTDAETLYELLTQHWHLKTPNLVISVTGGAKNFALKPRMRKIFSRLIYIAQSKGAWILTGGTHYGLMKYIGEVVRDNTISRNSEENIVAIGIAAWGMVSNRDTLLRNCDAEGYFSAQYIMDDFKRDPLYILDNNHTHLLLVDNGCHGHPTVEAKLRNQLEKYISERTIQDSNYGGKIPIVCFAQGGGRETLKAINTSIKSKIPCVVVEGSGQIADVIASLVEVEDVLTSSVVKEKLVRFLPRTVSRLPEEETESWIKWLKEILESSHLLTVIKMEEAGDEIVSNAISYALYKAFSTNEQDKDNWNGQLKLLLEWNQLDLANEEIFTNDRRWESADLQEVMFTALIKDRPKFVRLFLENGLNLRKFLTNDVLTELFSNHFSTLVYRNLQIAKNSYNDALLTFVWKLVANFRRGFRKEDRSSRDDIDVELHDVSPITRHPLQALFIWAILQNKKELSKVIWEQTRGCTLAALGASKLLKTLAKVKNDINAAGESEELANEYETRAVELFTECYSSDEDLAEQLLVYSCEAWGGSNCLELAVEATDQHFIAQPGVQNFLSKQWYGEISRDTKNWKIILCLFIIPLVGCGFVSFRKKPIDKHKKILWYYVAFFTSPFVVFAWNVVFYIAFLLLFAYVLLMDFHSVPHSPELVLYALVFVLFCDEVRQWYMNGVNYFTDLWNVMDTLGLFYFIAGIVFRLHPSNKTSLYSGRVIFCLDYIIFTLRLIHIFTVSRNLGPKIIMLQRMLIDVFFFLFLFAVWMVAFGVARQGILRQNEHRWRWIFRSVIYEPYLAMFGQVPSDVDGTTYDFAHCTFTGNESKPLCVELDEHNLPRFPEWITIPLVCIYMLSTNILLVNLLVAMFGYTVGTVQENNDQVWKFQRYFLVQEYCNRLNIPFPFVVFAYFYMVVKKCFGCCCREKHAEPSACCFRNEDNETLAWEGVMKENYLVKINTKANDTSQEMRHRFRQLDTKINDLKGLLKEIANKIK

By inhibition is commonly meant the drop in the measured response relative to a control, in per cent. The IC50 is the midpoint of a concentration-inhibition curve. On to `Cc1c(N(Cc2ccc(OC(F)(F)F)cc2)S(=O)(=O)CCN2CCNC(=O)CC2)sc2ccccc12` [Cpd 31, N-(3-Methylbenzo[b]thiophen-2-yl)-N-(4-trifluoromethoxy-benzyl)-2-(5-oxohomopiperazin-1-yl)ethylsulfonamide], for which the inhibition at 0.2 µM came to 99% and the IC50 stood at 27 nM.

`CN(CCS(=O)(=O)N(Cc1ccc(OC(F)(F)F)cc1)c1ccc2ccccc2c1)Cc1ccccc1` [Cpd 57, N-(Naphth-2-yl)-N-(4-trifluoromethoxy-benzyl)-2-(benzyl-methylamino)ethylsulfonamide]: the inhibition at 0.2 µM turned out to be 89% and the IC50 amounted to 52 nM.

In the case of `CCOC(=O)C1CCN(CCS(=O)(=O)N(CCC2CC2)c2sc3ccccc3c2C)CC1` [Cpd 84, N-(3-Methylbenzo[b]thiophen-2-yl)-N-(2-cyclopropyl-ethyl)-2-(4-carboethoxypiperidin-1-yl)ethylsulfonamide], the inhibition at 0.2 µM was determined as 97% and the IC50 was 72 nM.

In the case of `Cc1c(N(Cc2ccc(OC(F)(F)F)cc2)S(=O)(=O)CCN2CCOCC2)sc2ccccc12` [Cpd 32, N-(3-Methylbenzo[b]thiophen-2-yl)-N-(4-trifluoromethoxy-benzyl)-2-(morpholin-4-yl)ethylsulfonamide], the inhibition at 0.2 µM stood at 99% and the IC50 amounted to 12 nM.

Consider `CCOC(=O)C1CCN(CCS(=O)(=O)N(CCCCC(F)(F)F)c2sc3ccccc3c2C)CC1` [Cpd 85, N-(3-Methylbenzo[b]thiophen-2-yl)-N-(5,5,5-trifluoropent-1-yl)-2-(4-carboethoxypiperidin-1-yl)ethylsulfonamide], for which the inhibition at 0.2 µM came out at 77% and the IC50 worked out at 81 nM.

Regarding `CCCN(CCC)CCS(=O)(=O)N(Cc1ccc(OC(F)(F)F)cc1)c1sc2ccccc2c1Br` [Cpd 5, N-(3-Bromobenzo[b]thiophen-2-yl)-N-(4-trifluoromethoxy-benzyl)-2-(di-propylamino)ethylsulfonamide], the inhibition at 0.2 µM came to 101% and the IC50 came out at 22 nM.

Turning to `Cc1c(N(Cc2ccc(OC(F)(F)F)cc2)S(=O)(=O)CCN2CCCC2C)sc2ccccc12` (stereo not shown) [Cpd 37, N-(3-Methylbenzo[b]thiophen-2-yl)-N-(4-trifluoromethoxy-benzyl)-2-(2-methylpyrrolidin-1-yl)ethylsulfonamide], the inhibition at 0.2 µM is 100% and the IC50 came out at 20 nM.

On to `CCN(CCS(=O)(=O)N(CCCCC(F)(F)F)c1sc2ccccc2c1C)CC(C)C` [Cpd 89, N-(3-Methylbenzo[b]thiophen-2-yl)-N-(5,5,5-tritluoro-n-pent-1-yl)-2-(ethyl-isobutylamino)ethylsulfonamide], for which the inhibition at 0.2 µM turned out to be 99% and the IC50 turned out to be 36 nM.

As for `O=S(=O)(CCN1CCCC(F)(F)C1)N(Cc1ccc(OC(F)(F)F)cc1)c1sc2ccccc2c1Br` [Cpd 67, N-(3-Bromobenzo[b]thiophen-2-yl)-N-(4-trifluoromethoxy-benzyl)-2-(3,3-difluoropiperidin-1-yl)ethylsulfonamide], the inhibition at 0.2 µM stood at 102% and the IC50 is 9 nM.

In the case of `O=S(=O)(CCN1CCC(F)(F)C1)N(Cc1ccc(OC(F)(F)F)cc1)c1sc2ccccc2c1Br` [Cpd 68, N-(3-Bromobenzo[b]thiophen-2-yl)-N-(4-trifluoromethoxy-benzyl)-2-(3,3-difluoropyrrolidin-1-yl)ethylsulfonamide], the inhibition at 0.2 µM amounted to 102% and the IC50 is 72 nM.

As for `Cc1c(N(Cc2ccc(OC(F)(F)F)cc2)S(=O)(=O)CCN2CCN(C)CC2)sc2ccccc12` [Cpd 28, N-(3-Methylbenzo[b]thiophen-2-yl)-N-(4-trifluoromethoxy-benzyl)-2-(4-methylpiperazin-1-yl)ethylsulfonamide], the inhibition at 0.2 µM stood at 25%.

In the case of `Cc1c(N(Cc2ccc(OC(F)(F)F)cc2)S(=O)(=O)CCN2CCN(c3ccccc3)CC2)sc2ccccc12` [Cpd 30, N-(3-Methylbenzo[b]thiophen-2-yl)-N-(4-trifluoromethoxy-benzyl)-2-(4-phenylpiperazin-1-yl)ethylsulfonamide], the inhibition at 0.2 µM stood at 96% and the IC50 is 33 nM.

Consider `O=S(=O)(CCN1CCC(c2ccccc2)CC1)N(Cc1ccc(OC(F)(F)F)cc1)c1ccc2ccccc2c1` [Cpd 53, N-(Naphth-2-yl)-N-(4-trifluoromethoxy-benzyl)-2-(4-phenylpiperidin-1-yl)ethylsulfonamide], for which the inhibition at 0.2 µM turned out to be 58%.

Consider `Cc1c(N(Cc2ccc(OC(F)(F)F)cc2)S(=O)(=O)CCN2CCC(C)CC2)sc2ccccc12` [Cpd 19, N-(3-Methylbenzo[b]thiophen-2-yl)-N-(4-trifluoromethoxy-benzyl)-2-(4-methylpiperidin-1-yl)ethylsulfonamide], for which the inhibition at 0.2 µM was determined as 99% and the IC50 was found to be 34 nM.

For the molecule `CC(C)CN(CCS(=O)(=O)N(Cc1ccc(OC(F)(F)F)cc1)c1ccc2ccccc2c1)CC(C)C` [Cpd 96, N-(Naphth-2-yl)-N-(4-trifluoromethoxy-benzyl)-2-(diisobutylamino)-ethylsulfonamide], the inhibition at 0.2 µM was determined as 72% and the IC50 was found to be 153 nM.

As for `Cc1c(N(Cc2ccc(OC(F)(F)F)cc2)S(=O)(=O)CCN2CC(F)(F)C2)sc2ccccc12` [Cpd 46, N-(3-Methylbenzo[b]thiophen-2-yl)-N-(4-trifluoromethoxy-benzyl)-2-(3,3-ditluoroazetidin-1-yl)ethylsulfonamide], the inhibition at 0.2 µM worked out at 101% and the IC50 turned out to be 4 nM.

As to `Cc1c(N(Cc2ccc(OC(F)(F)F)cc2)S(=O)(=O)CCN2CC(C)CC(C)C2)sc2ccccc12` (stereo not shown) [Cpd 21, N-(3-Methylbenzo[b]thiophen-2-yl)-N-(4-trifluoromethoxy-benzyl)-2-(3,5-dimethylpiperidin-1-yl)ethylsulfonamide], the inhibition at 0.2 µM was determined as 100% and the IC50 was determined as 52 nM.

With `CC(=O)N(CCS(=O)(=O)N(CCC1CC1)c1sc2ccccc2c1C)CC(C)C` [Cpd 92, N-(3-Methylbenzo[b]thiophen-2-yl)-N-(2-cyclopropyl-ethyl)-2-(N-acetyl-isobutylamino)ethylsulfonamide], the inhibition at 0.2 µM was 101% and the IC50 turned out to be 35 nM.

Turning to `CCOC(=O)CNCCS(=O)(=O)N(Cc1ccc(OC(F)(F)F)cc1)c1sc2ccccc2c1C` [Cpd 47, N-(3-Methylbenzo[b]thiophen-2-yl)-N-(4-trifluoromethoxy-benzyl)-2-[(carboethoxymethyl)amino]ethylsulfonamide], the inhibition at 0.2 µM worked out at 83% and the IC50 amounted to 51 nM.

With `O=S(=O)(CCN1CCCCC1)N(Cc1ccc(OC(F)(F)F)cc1)c1sc2ccccc2c1Br` [Cpd 64, N-(3-Bromobenzo[b]thiophen-2-yl)-N-(4-trifluoromethoxy-benzyl)-2-(N-piperidinyl)ethylsulfonamide], the inhibition at 0.2 µM was found to be 101% and the IC50 turned out to be 27 nM.

Take `CCN(CCS(=O)(=O)N(Cc1ccc(OC(F)(F)F)cc1)c1sc2ccccc2c1C)CC(C)C` [Cpd 83, N-(3-Methylbenzo[b]thiophen-2-yl)-N-(4-trifluoromethoxy-benzyl)-2-(isobutyl-ethylamino)ethylsulfonamide]: the inhibition at 0.2 µM was found to be 99% and the IC50 turned out to be 17 nM.

Turning to `CCN(CCS(=O)(=O)N(CCC1CC1)c1sc2ccccc2c1C)CC(C)C` [Cpd 94, N-(3-Methylbenzo[b]thiophen-2-yl)-N-(2-cyclopropyl-ethyl)-2-(ethyl-isobutylamino)ethylsulfonamide], the inhibition at 0.2 µM came out at 103% and the IC50 came to 27 nM.

On to `CC(C)CN(CCS(=O)(=O)N(Cc1ccc(OC(F)(F)F)cc1)c1sc2ccccc2c1Br)CC(C)C` [Cpd 63, N-(3-Bromobenzo[b]thiophen-2-yl)-N-(4-trifluoromethoxy-benzyl)-2-(di-iso-butylamino)ethylsulfonamide], for which the inhibition at 0.2 µM was determined as 101% and the IC50 was found to be 6 nM.

For `CCCCN(CCCC)CCS(=O)(=O)N(Cc1ccc(OC(F)(F)F)cc1)c1sc2ccccc2c1C` [Cpd 15, N-(3-Methylbenzo[b]thiophen-2-yl)-N-(4-trifluoromethoxy-benzyl)-2-(dibutylamino)ethylsulfonamide], the inhibition at 0.2 µM was 100% and the IC50 was found to be 22 nM.

Take `O=S(=O)(CCN1CCSCC1)N(Cc1ccc(OC(F)(F)F)cc1)c1ccc2ccccc2c1` [Cpd 52, N-(Naphth-2-yl)-N-(4-trifluoromethoxy-benzyl)-2-(thiomorpholin-4-yl)ethylsulfonamide]: the inhibition at 0.2 µM came out at 87% and the IC50 was determined as 42 nM.

`CCN(CC)CCS(=O)(=O)N(Cc1ccc(OC(F)(F)F)cc1)c1sc2ccccc2c1C` [Cpd 9, N-(3-Methylbenzo[b]thiophen-2-yl)-N-(4-trifluoromethoxy-benzyl)-2-(diethylamino)ethylsulfonamide]: the inhibition at 0.2 µM amounted to 101% and the IC50 was determined as 19 nM.

For the molecule `CN(CCS(=O)(=O)N(Cc1ccc(OC(F)(F)F)cc1)c1sc2ccccc2c1Br)Cc1ccccc1` [Cpd 61, N-(3-Bromobenzo[b]thiophen-2-yl)-N-(4-trifluoromethoxy-benzyl)-2-(benzyl-methylamino)ethylsulfonamide], the inhibition at 0.2 µM amounted to 102% and the IC50 was determined as 28 nM.

(Values after US8148422B2, “Sulfonamides as TRPM8 modulators” (Janssen Pharmaceutica, NV, priority 2008, dated 2012).)
